In the supplement of paper PMC7600603:

What was measured:
[1] = test system: DLD1 NRF2-GOF; assay: TC50 cytotoxicity; higher = less toxic; conditions: 72 h; CellTox Green cytotoxicity
How it was run: (§1)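 TC50 and drug sensitivity score, a normalised area under the curve, were derived by logistic dose-response fits of cytotoxicity. The cells were an isogenic DLD1 colorectal cancer pair, NRF2 wild-type or CRISPR-edited, kept in DMEM with 10% FBS. Compounds were tested in 384-well plates at 5 concentrations across a 10,000-fold range for 72 h. Readings with CellTox Green on a Pherastar FS reader were normalised to vehicle wells and 100-μM positive-control wells.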

[2] = test system: DLD1 NRF2-WT; assay: TC50 cytotoxicity; higher = less toxic; conditions: 72 h; CellTox Green cytotoxicity
How it was run: as §1

[3] = test system: DLD1 NRF2-GOF; assay: drug sensitivity score (DSS) cytotoxicity (DSS score); higher = more toxic; extreme values may be limits of the assay; conditions: 72 h; CellTox Green cytotoxicity
How it was run: as §1

[4] = test system: DLD1 NRF2-WT; assay: as above; conditions: 72 h; CellTox Green cytotoxicity
How it was run: as §1

[5] = test system: DLD1 NRF2-GOF; assay: drug sensitivity score (DSS) viability (DSS score); higher = more sensitive; extreme values may be limits of the assay; conditions: 72 h; CellTiter-Glo viability
How it was run: (§2)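 Isogenic DLD1 colorectal cancer cells, either NRF2 wild-type or CRISPR gain-of-function, were grown in DMEM with 10% FBS. They were exposed in 384-well plates to library compounds at 5 concentrations spanning a 10,000-fold range. After 72 h, viability was read by CellTiter-Glo on a Pherastar FS reader and normalised to vehicle wells and 100-μM positive-control wells. EC50 and drug sensitivity score (a normalised area under the curve) came from four-parameter logistic dose-response fits.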

[6] = test system: DLD1 NRF2-WT; assay: as above; conditions: 72 h; CellTiter-Glo viability
How it was run: as §2

[7] = test system: DLD1 NRF2-GOF; conditions: 72 h; CellTiter-Glo viability
How it was run: as §2

[8] = test system: DLD1 NRF2-WT; conditions: 72 h; CellTiter-Glo viability
How it was run: as §2

Row | SMILES | TC50 cytotoxicity [1] | TC50 cytotoxicity [2] | drug sensitivity score [3] | drug sensitivity score [4] | drug sensitivity score [5] | drug sensitivity score [6] | EC50 viability [7] | EC50 viability [8]
1 | COc1cc(N2CCC(N3CCN(C)CC3)CC2)ccc1Nc1ncnc(Nc2ccccc2S(=O)(=O)C(C)C)n1 [ASP3026] | > 10000 nM | > 10000 nM | 0 | 0 | 3 | 3.3 | 3420 nM | 3550 nM
2 | O=C(NC1CCNCC1)c1n[nH]cc1NC(=O)c1c(Cl)cccc1Cl [AT7519] | > 10000 nM | > 10000 nM | 0 | 0 | 17.1 | 20 | 256 nM | 169 nM
3 | O=C(Nc1c[nH]nc1-c1nc2ccc(CN3CCOCC3)cc2[nH]1)NC1CC1 [AT9283] | 26.7 nM | > 1000 nM | 9.8 | 2.6 | 15.1 | 8.6 | 21.9 nM | 55.5 nM
4 | Cc1cc2c(C(C)C)c(O)c(O)c(C=O)c2c(O)c1-c1c(C)cc2c(C(C)C)c(O)c(O)c(C=O)c2c1O [AT 101] | > 100000 nM | 30300 nM | 1 | 1.7 | 14.4 | 15.9 | 6100 nM | 4410 nM
5 | CN[C@@H](C)C(=O)N[C@H]1CN(C(=O)CC(C)C)CC[C@H]2CC[C@@H](C(=O)NC(c3ccccc3)c3ccccc3)N2C1=O [AT-406] | > 10000 nM | > 10000 nM | 0 | 0 | 2.6 | 0 | 885 nM | > 10000 nM
6 | CC[C@H](CC#N)OC(=O)N[C@@H](C)c1cccc(NC(=O)Nc2ccc(-c3cnco3)c(OC)c2)c1 [AVN944] | > 10000 nM | > 10000 nM | 0 | 0 | 15.9 | 15.6 | 112 nM | 169 nM
7 | COc1cc(N2CCN(C)CC2)ccc1Nc1nccc(-c2cn(C)c3cnccc23)n1 [AZ191] | > 10000 nM | > 10000 nM | 0 | 0.3 | 5.2 | 7 | 1780 nM | 1590 nM
8 | CCN(CCO)CCCOc1ccc2c(Nc3cc(CC(=O)Nc4cccc(F)c4)[nH]n3)ncnc2c1 [AZD1152-HQPA] | 56.8 nM | 53.4 nM | 7.7 | 5.5 | 6.7 | 6.6 | 65.8 nM | 35.5 nM
9 | C=CCn1c(=O)c2cnc(Nc3ccc(N4CCN(C)CC4)cc3)nc2n1-c1cccc(C(C)(C)O)n1 [AZD1775] | 171 nM | 1000 nM | 6.1 | 5.7 | 16.9 | 14.5 | 143 nM | 353 nM
10 | C[C@@H]1COCCN1c1cc(C2([S@](C)(=N)=O)CC2)nc(-c2cc[nH]c3nccc2-3)n1 [AZD6738] | > 25000 nM | > 25000 nM | 0 | 0 | 4.5 | 7.8 | 3030 nM | 2670 nM
11 | NC(=O)Nc1cc(-c2cccc(F)c2)sc1C(=O)N[C@H]1CCCNC1 [AZD7762] | 362 nM | 247 nM | 1.7 | 2.2 | 7.6 | 5.3 | 106 nM | 175 nM
12 | COc1ccc(-c2ccc3c(N4CCOC[C@@H]4C)nc(N4CCOC[C@@H]4C)nc3n2)cc1CO [AZD8055] | > 10000 nM | > 10000 nM | 0 | 0 | 17.4 | 19.1 | 103 nM | 75.1 nM
13 | NC1(C(=O)N[C@@H](CCO)c2ccc(Cl)cc2)CCN(c2ncnc3[nH]ccc23)CC1 [AZD-5363] | > 10000 nM | > 10000 nM | 0 | 0 | 5.2 | 6.1 | 1510 nM | 687 nM
14 | Cc1ncc(-c2ccnc(Nc3ccc(S(C)(=O)=O)cc3)n2)n1C(C)C [AZD-5438] | > 10000 nM | > 10000 nM | 1.9 | 0.5 | 8.7 | 10.8 | 1440 nM | 1020 nM
15 | Cc1cc([C@@H](C)Nc2ccccc2C(=O)O)c2nc(N3CCOCC3)cc(=O)n2c1 [AZD-6482] | > 2500 nM | > 2500 nM | 0 | 0 | 0 | 0.1 | > 2500 nM | > 2500 nM
16 | CCN1CCN(Cc2ccc(Nc3ncc(F)c(-c4cc(F)c5nc(C)n(C(C)C)c5c4)n3)nc2)CC1 [Abemaciclib] | > 2500 nM | > 2500 nM | 0 | 0 | 6.6 | 11.5 | 134 nM | 26.6 nM
17 | CN(C)Cc1c(C(=O)NCCOc2ccc(C(=O)NO)cc2)oc2ccccc12 [Abexinostat] | > 10000 nM | 1250 nM | 0.7 | 7.5 | 10.4 | 14 | 832 nM | 582 nM

Row | SMILES | TC50 cytotoxicity [1] | TC50 cytotoxicity [2] | drug sensitivity score [3] | drug sensitivity score [4] | drug sensitivity score [5] | drug sensitivity score [6] | EC50 viability [7] | EC50 viability [8]
18 | CC#CC(=O)N1CCC[C@H]1c1nc(-c2ccc(C(=O)Nc3ccccn3)cc2)c2c(N)nccn12 [Acalabrutinib] | > 1000 nM | > 1000 nM | 0 | 0 | 4 | 1.7 | 110 nM | 284 nM
19 | COc1cc(C)c(/C=C/C(C)=C/C=C/C(C)=C/C(=O)O)c(C)c1C [Acitretin] | > 10000 nM | > 10000 nM | 0 | 0 | 10.3 | 15.5 | 103 nM | 20.2 nM
20 | CN(C)C/C=C/C(=O)Nc1cc2c(Nc3ccc(F)c(Cl)c3)ncnc2cc1O[C@H]1CCOC1 [Afatinib] | > 1000 nM | > 1000 nM | 0 | 0 | 2.9 | 3.3 | 145 nM | 148 nM
21 | COc1cccc2c1C(=O)c1c(O)c3c(c(O)c1C2=O)C[C@@](O)(/C(CO)=N/NC(=O)CCCCCN1C(=O)C=CC1=O)C[C@@H]3O[C@H]1C[C@H](N)[C@H](O)[C@H](C)O1 [Aldoxorubicin] | > 1000 nM | > 1000 nM | 0 | 0 | 7.6 | 8.5 | 149 nM | 137 nM
22 | COc1cc(Nc2ncc3c(n2)-c2ccc(Cl)cc2C(c2c(F)cccc2OC)=NC3)ccc1C(=O)O [Alisertib] | 205 nM | 939 nM | 6.6 | 2.8 | 15.9 | 10.3 | 47.8 nM | 27.9 nM
23 | CN1CC[C@H](c2c(O)cc(O)c3c(=O)cc(-c4ccccc4Cl)oc23)[C@H](O)C1 [Alvocidib] | > 10000 nM | > 10000 nM | 0 | 0.8 | 16.2 | 20.1 | 266 nM | 156 nM
24 | COc1cc(NS(C)(=O)=O)ccc1Nc1c2ccccc2nc2ccccc12 [Amsacrine] | > 10000 nM | > 10000 nM | 0 | 0.7 | 6.2 | 4.4 | 1220 nM | 2400 nM
25 | Nc1ncn([C@@H]2O[C@H](CO)[C@@H](O)[C@H]2O)c(=O)n1 [Azacitidine] | > 10000 nM | > 10000 nM | 0 | 0 | 3.3 | 1 | 1380 nM | 4010 nM
26 | Cc1cc(-c2nc(-c3ccc(OC(F)(F)F)cc3)no2)nn1Cc1ccnc(N2CCN(C3CC3)CC2)c1 [BAY 87-2243] | > 1000 nM | > 1000 nM | 0 | 0 | 1.7 | 16.2 | > 1000 nM | 0.9 nM
27 | O=C1CCc2c(Oc3ccc4c(c3)[C@@H]3[C@H](O4)[C@H]3c3nc4cc(C(F)(F)F)ccc4[nH]3)ccnc2N1 [BGB-283] | > 10000 nM | > 10000 nM | 0 | 0 | 1.5 | 5 | 4130 nM | 1620 nM
28 | O=C(/C=C/c1cccc(S(=O)(=O)Nc2ccccc2)c1)NO [Belinostat] | > 10000 nM | 1530 nM | 0 | 2.6 | 7.1 | 9.9 | 1260 nM | 1100 nM
29 | N#CC(c1ccnc(OCc2ccc(CN3CCOCC3)cc2)n1)c1nc2ccccc2s1 (configuration not stated) [Bentamapimod] | > 10000 nM | > 10000 nM | 0 | 0 | 0 | 0 | > 10000 nM | > 10000 nM
30 | C=C(c1ccc(C(=O)O)cc1)c1cc2c(cc1C)C(C)(C)CCC2(C)C [Bexarotene] | > 10000 nM | > 10000 nM | 0 | 0 | 3.9 | 0 | 1030 nM | > 10000 nM
31 | COc1cc(Nc2c(C#N)cnc3cc(OCCCN4CCN(C)CC4)c(OC)cc23)c(Cl)cc1Cl [Bosutinib] | 3430 nM | 3500 nM | 3.1 | 3.8 | 9.3 | 10 | 1480 nM | 1220 nM
32 | COc1cc(N2CCC(N3CCN(C)CC3)CC2)ccc1Nc1ncc(Cl)c(Nc2ccccc2P(C)(C)=O)n1 [Brigatinib] | > 1000 nM | > 1000 nM | 0 | 0 | 3.4 | 1.1 | 55.1 nM | 399 nM
33 | CCC/C=C/C=C/C(=O)O[C@H]1/C(=C/C(=O)OC)C[C@H]2C[C@H]([C@@H](C)O)OC(=O)C[C@H](O)C[C@@H]3C[C@H](OC(C)=O)C(C)(C)[C@](O)(C[C@@H]4C/C(=C/C(=O)OC)C[C@H](/C=C/C(C)(C)[C@]1(O)O2)O4)O3 [Bryostatin 1] | > 100 nM | > 100 nM | 0 | 0 | 2.8 | 0.2 | > 100 nM | > 100 nM
34 | Nc1cc(C(F)(F)F)c(-c2cc(N3CCOCC3)nc(N3CCOCC3)n2)cn1 [Buparlisib] | > 10000 nM | > 10000 nM | 0 | 0.4 | 4.2 | 7 | 3130 nM | 1780 nM
